Experimental findings from patent US11180490B2, “Cyclopropyl urea formyl peptide 2 receptor and formyl peptide 1 receptor agonists” (BRISTOL-MYERS SQUIBB COMPANY, priority 2017, dated 2021) are described below.

The target in one experiment is T1, human FPR2 (Homo sapiens, UniProt P25090).
T1 sequence (P25090 1-351): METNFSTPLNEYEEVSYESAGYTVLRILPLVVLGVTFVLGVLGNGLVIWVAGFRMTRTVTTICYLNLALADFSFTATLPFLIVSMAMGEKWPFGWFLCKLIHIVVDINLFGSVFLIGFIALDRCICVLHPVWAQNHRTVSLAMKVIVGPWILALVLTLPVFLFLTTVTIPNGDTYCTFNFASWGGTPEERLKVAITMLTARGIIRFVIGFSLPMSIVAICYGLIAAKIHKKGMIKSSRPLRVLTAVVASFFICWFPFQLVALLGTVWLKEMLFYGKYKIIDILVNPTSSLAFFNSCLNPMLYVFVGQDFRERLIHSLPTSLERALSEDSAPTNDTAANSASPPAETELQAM
The experiment can be described thus: FPR2 cyclic adenosine monophosphate (cAMP) assay. The format is cell-based. Particulars: CHO cells overexpressing human FPR2; inhibition of forskolin-stimulated cAMP production; read-out: hFPR2 cAMP2 EC50. On the procedure:
(§1) FPR2 and FPR1 Cyclic Adenosine Monophosphate (cAMP) Assays. A mixture of forskolin (5 μM final for FPR2 or 10 μM final for FPR1) and IBMX (200 μM final) were added to 384-well Proxiplates (Perkin-Elmer) pre-dotted with test compounds in DMSO (1% final) at final concentrations in the range of 1.7 nM to 100 μM. Chinese Hamster Ovary cells (CHO) overexpressing human FPR1 or human FPR2 receptors were cultured in F-12 (Ham's) medium supplemented with 10% qualified FBS, 250 μg/ml zeocin and 300 μg/ml hygromycin (Life Technologies). Reactions were initiated by adding 2,000 human FPR2 cells per well or 4,000 human FPR1 cells per well in Dulbecco's PBS (with calcium and magnesium) (Life Technologies) supplemented with 0.1% BSA (Perkin-Elmer). The reaction mixtures were incubated for 30 min at room temperature. The level of intracellular cAMP was determined using the HTRF HiRange cAMP assay reagent kit (Cisbio) according to manufacturer's instruction. Solutions of cryptate conjugated anti-cAMP and d2 flurorophore-labelled cAMP were made in a supplied lysis buffer separately. Upon completion of the reaction, the cells were lysed with equal volume of the d2-cAMP solution and anti-cAMP solution. After a 1-h room temperature incubation, time-resolved fluorescence intensity was measured using the Envision (Perkin-Elmer) at 400 nm excitation and dual emission at 590 nm and 665 nm. A calibration curve was constructed with an external cAMP standard at concentrations ranging from 1 μM to 0.1 pM by plotting the fluorescent intensity ratio from 665 nm emission to the intensity from the 590 nm emission against cAMP concentrations. The potency and activity of a compound to inhibit cAMP production was then determined by fitting to a 4-parametric logistic equation from a plot of cAMP level versus compound concentrations.
Background: Changes in cAMP serve as a functional read-out for many G protein-coupled receptors.

A further experiment concerns the target T2, human FPR1 (Homo sapiens, UniProt P21462).
T2 sequence (P21462 1-350): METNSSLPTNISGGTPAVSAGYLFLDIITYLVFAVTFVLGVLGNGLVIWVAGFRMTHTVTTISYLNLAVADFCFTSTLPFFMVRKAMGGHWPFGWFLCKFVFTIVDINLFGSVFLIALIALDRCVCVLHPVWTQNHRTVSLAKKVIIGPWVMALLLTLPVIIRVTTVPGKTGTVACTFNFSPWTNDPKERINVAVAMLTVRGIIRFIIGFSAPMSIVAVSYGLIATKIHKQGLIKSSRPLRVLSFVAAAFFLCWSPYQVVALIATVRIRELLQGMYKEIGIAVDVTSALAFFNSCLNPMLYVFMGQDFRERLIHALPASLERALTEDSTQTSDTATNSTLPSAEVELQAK
The experiment can be described thus: FPR1 cyclic adenosine monophosphate (cAMP) assay. Particulars: CHO cells overexpressing human FPR1; inhibition of forskolin-stimulated cAMP production; read-out: hFPR1 cAMP EC50. The format is cell-based. On the procedure: as §1

The term EC50 denotes the concentration at which the effect is half-maximal.

In the case of `COc1cc(F)c([C@@H]2CNC(=O)[C@H]2NC(=O)NC2(c3ccc4cc(Cl)ccc4n3)CC2)c(F)c1` [Example 53, 3-[1-(6-chloroquinolin-2-yl)cyclopropyl]-1-[(3S,4R)-4-(2,6-difluoro-4-methoxyphenyl)-2-oxopyrrolidin-3-yl]urea], the EC50 at human FPR2 was determined as 12 nM; on human FPR1, 430 nM.

Regarding `COc1cc(F)c([C@@H]2CNC(=O)[C@H]2NC(=O)NC2(c3ccc(C)cc3)CC2)c(F)c1` [Example 2, 1-[(3S,4R)-4-(2,6-difluoro-4-methoxyphenyl)-2-oxopyrrolidin-3-yl]-3-[1-(4-methylphenyl)cyclopropyl]urea], the concentration for a half-maximal effect (EC50) on human FPR2 came out at 33 nM; at human FPR1, 660 nM.

As for `COc1cc(F)c([C@@H]2CNC(=O)[C@H]2NC(=O)NC2(c3nc4ccc(C)cc4s3)CC2)c(F)c1` [Example 85, 1-[(3S,4R)-4-(2,6-difluoro-4-methoxyphenyl)-2-oxopyrrolidin-3-yl]-3-[1-(6-methyl-1,3-benzothiazol-2-yl)cyclopropyl]urea], the EC50 on human FPR2 was 12 nM; on human FPR1 it was 1600 nM.

In the case of `COc1cc(F)c([C@@H]2CN(C)C(=O)[C@H]2NC(=O)NC2(c3ccc4ccccc4n3)CC2)c(F)c1` [Example 8, 1-[(3S,4R)-4-(2,6-difluoro-4-methoxyphenyl)-1-methyl-2-oxopyrrolidin-3-yl]-3-[1-(quinolin-2-yl)cyclopropyl]urea], the concentration giving a half-maximal response (EC50) worked out at 5.7 nM at human FPR2 and 66 nM at human FPR1.

In the case of `COc1cc(F)c([C@@H]2CN(CC3CC3)C(=O)[C@H]2NC(=O)NC2(c3cccc(C)n3)CC2)c(F)c1` [Example 94, 1-((3S,4R)-1-(cyclopropylmethyl)-4-(2,6-difluoro-4-methoxyphenyl)-2-oxopyrrolidin-3-yl)-3-(1-(6-methylpyridin-2-yl)cyclopropyl)urea], the concentration for a half-maximal effect (EC50) amounted to 1.5 nM at human FPR2 and 26 nM at human FPR1.

`CCCN1C[C@@H](c2c(F)cc(OC)cc2F)[C@H](NC(=O)NC2(c3ccc4ccccc4n3)CC2)C1=O` [Example 95, 1-[(3S,4R)-4-(2,6-difluoro-4-methoxyphenyl)-2-oxo-1-propylpyrrolidin-3-yl]-3-[1-(quinolin-2-yl)cyclopropyl]urea]: the EC50 at human FPR2 amounted to 1.7 nM; at human FPR1, 19 nM.

`COc1cc(F)c([C@@H]2CNC(=O)[C@H]2NC(=O)NC2(c3nc4c(C(F)(F)F)cccc4s3)CC2)c(F)c1` [Example 96, 1-[(3S,4R)-4-(2,6-difluoro-4-methoxyphenyl)-2-oxopyrrolidin-3-yl]-3-{1-[4-(trifluoromethyl)-1,3-benzothiazol-2-yl]cyclopropyl}urea]: the values for the EC50 at human FPR2 and at human FPR1 were 2 nM and 120 nM, respectively.

Take `COc1cc(F)c([C@@H]2CNC(=O)[C@H]2NC(=O)NC2(c3ccc(C)c(Cl)c3)CC2)c(F)c1` [Example 50, 3-[1-(3-chloro-4-methylphenyl)cyclopropyl]-1-[(3S,4R)-4-(2,6-difluoro-4-methoxyphenyl)-2-oxopyrrolidin-3-yl]urea]: the EC50 was 1.7 nM at human FPR2 and 200 nM on human FPR1.

Regarding `COc1cc(F)c([C@@H]2CNC(=O)[C@H]2NC(=O)NC2(c3ccc4cc(OC)ccc4c3)CC2)c(F)c1` [Example 63, 1-[(3S,4R)-4-(2,6-difluoro-4-methoxyphenyl)-2-oxopyrrolidin-3-yl]-3-[1-(6-methoxynaphthalen-2-yl)cyclopropyl]urea], the concentration giving a half-maximal response (EC50) came to 34 nM at human FPR2 and 1500 nM on human FPR1.

As to `COc1cc(F)c([C@@H]2CNC(=O)[C@H]2NC(=O)NC2(c3ccc(Cl)c(C)n3)CC2)c(F)c1` [Example 47, 3-[1-(5-chloro-6-methylpyridin-2-yl)cyclopropyl]-1-[(3S,4R)-4-(2.6-difluoro-4-methoxyphenyl)-2-oxopyrrolidin-3-yl]urea], the figures for the EC50 on human FPR2 and at human FPR1 were 2.3 nM and 270 nM, respectively.

With `COc1cc(F)c([C@@H]2CN(Cc3nnc(C)o3)C(=O)[C@H]2NC(=O)NC2(c3cccc(C)n3)CC2)c(F)c1` [Example 115], the EC50 turned out to be 25 nM on human FPR2 and 280 nM on human FPR1.

`COc1cc(F)c([C@@H]2CNC(=O)[C@H]2NC(=O)NC2(c3ccc4ccccc4n3)CC2)c(F)c1` [Example 26, 1-[(3S,4R)-4-(2,6-difluoro-4-methoxyphenyl)-2-oxopyrrolidin-3-yl]-3-[1-(quinolin-2-yl)cyclopropyl]urea]: the figures for the EC50 at human FPR2 and on human FPR1 were 6.4 nM and 320 nM, respectively.

Regarding `COc1cc(F)c([C@@H]2CNC(=O)[C@H]2NC(=O)NC2(c3cccc(C(F)(F)F)c3)CC2)c(F)c1` [Example 19, 1-[(3S,4R)-4-(2,6-difluoro-4-methoxyphenyl)-2-oxopyrrolidin-3-yl]-3-{1-[3-(trifluoro-methyl)phenyl]cyclo-propyl}urea], the EC50 at human FPR2 is 49 nM; at human FPR1, 2300 nM.

Turning to `COc1cc(F)c([C@@H]2CN(CC(F)(F)F)C(=O)[C@H]2NC(=O)NC2(c3cccc(C)n3)CC2)c(F)c1` [Example 110, 1-[(3S,4R)-4-(2,6-difluoro-4-methoxyphenyl)-2-oxo-1-(2,2,2-trifluoroethyl)pyrrolidin-3-yl]-3-[1-(6-methylpyridin-2-yl)cyclopropyl]urea], the 50% effective concentration (EC50) at human FPR2 was determined as 14 nM; on human FPR1 it was 150 nM.

For `COc1ccc([C@@H]2CNC(=O)[C@H]2NC(=O)NC2(c3cccc(Cl)n3)CC2)c(F)c1` [Example 48, 3-[1-(6-chloropyridin-2-yl)cyclopropyl]-1-[(3S,4R)-4-(2-fluoro-4-methoxyphenyl)-2-oxopyrrolidin-3-yl]urea], the EC50 at human FPR2 was 9.7 nM; at human FPR1 it was 140 nM.

`COc1cc(F)c([C@@H]2CNC(=O)[C@H]2NC(=O)NC2(c3cccc(Cl)n3)CC2)c(F)c1` [Example 1, 3-[1-(6-chloropyridin-2-yl)cyclopropyl]-1-[(3S,4R)-4-(2,6-difluoro-4-methoxyphenyl)-2-oxopyrrolidin-3-yl]urea]: the EC50 on human FPR2 was 8.3 nM; on human FPR1 it was 820 nM.

Consider `COc1cc(F)c([C@@H]2CN(CCO)C(=O)[C@H]2NC(=O)NC2(c3ccc4ccccc4n3)CC2)c(F)c1` [Example 67, 1-[(3S,4R)-4-(2,6-difluoro-4-methoxyphenyl)-1-(2-hydroxyethyl)-2-oxopyrrolidin-3-yl]-3-[1-(quinolin-2-yl)cyclopropyl]urea], for which the EC50 at human FPR2 is 63 nM; at human FPR1, 700 nM.

As to `COc1cc(F)c([C@@H]2CNC(=O)[C@H]2NC(=O)NC2(c3ccc4ncccc4n3)CC2)c(F)c1` [Example 4, 1-[(3S,4R)-4-(2,6-difluoro-4-methoxyphenyl)-2-oxopyrrolidin-3-yl]-3-[1-(1,5-naphthyridin-2-yl)cyclopropyl]urea], the figures for the EC50 at human FPR2 and at human FPR1 were 110 nM and 1000 nM, respectively.

On to `COc1cc(F)c([C@@H]2CNC(=O)[C@H]2NC(=O)NC2(c3cccc(OCc4ccc5ccccc5c4)c3)CC2)c(F)c1` [Example 131, 1-[(3S,4R)-4-(2,6-difluoro-4-methoxyphenyl)-2-oxopyrrolidin-3-yl]-3-(l-{3-[(naphthalen-2-yl)methoxy]phenyl}cyclo-propyl)urea], for which the half-maximal effective concentration (EC50) was 4 nM at human FPR2 and 1000 nM on human FPR1.
